Values quoted from earlier work in article PMC4562162 (CPT: Pharmacometrics & Systems Pharmacology, 2015).

Tested on: CETP

CCC(CC)CC1(C(=O)Nc2ccccc2SC(=O)C(C)C)CCCCC1 [Dalcetrapib]
effect on LDL-C levels: minimal effects on LDL-C levels
